Reference: ChEMBL document CHEMBL2169738, “Rational design of a low molecular weight, stable, potent, and long-lasting GPR103 aza-β3-pseudopeptide agonist” (J Med Chem, 2012)
Values belong to the compound of their own block, whether it stands above or below them. Active and inactive are the calls of the source. No cut-off for these calls is given here. Numbered stars: 1 amine (or outer) side, 2 acyl side, 3 side chain; on linkers, the order of the positions; unused ones are H or OH. Square brackets hold non-standard residues; d marks the D form. Peptide text beside a SMILES is read from it. * marks the point of attachment. Acetyl(2-(piperazin-1-yl)) = O=C(CN1CCNCC1)*; azaβ3hArg = N=C(N)NCCCN(CC(=O)[*:2])N[*:1]; Hydrazinoacetyl = O=C(CNN[*:1])[*:2]; X5 = O=C(CN(Cc1ccccc1)N[*:1])[*:2]; X9 = O=C(CN(CC1CCCCC1)N[*:1])[*:2]; X1 = O=C(CN(CC(O)CO)N[*:1])[*:2]; X3 = CCCCN(CC(=O)[*:2])N[*:1]; X4 = CCCN(CC(=O)[*:2])N[*:1]; X6 = O=C(CN(CCO)N[*:1])[*:2]; X2 = NC(=O)CN(Cc1ccccc1)N*; X8 = CN(CC(=O)[*:2])N[*:1]; X7 = O=C(CN1CCCN1)*

Columns and labels:
[1] = biological target: T1, Pyroglutamylated RF-amide peptide receptor (Homo sapiens, UniProt Q96P65); test: Agonist activity at human GPR103 expressed in CHO cells co-expressing Galpha16 assessed as increase in intracellular calcium level measured for 2 mins by fluorimetry; format: functional, cell-based
T1 sequence (Q96P65 whole entry): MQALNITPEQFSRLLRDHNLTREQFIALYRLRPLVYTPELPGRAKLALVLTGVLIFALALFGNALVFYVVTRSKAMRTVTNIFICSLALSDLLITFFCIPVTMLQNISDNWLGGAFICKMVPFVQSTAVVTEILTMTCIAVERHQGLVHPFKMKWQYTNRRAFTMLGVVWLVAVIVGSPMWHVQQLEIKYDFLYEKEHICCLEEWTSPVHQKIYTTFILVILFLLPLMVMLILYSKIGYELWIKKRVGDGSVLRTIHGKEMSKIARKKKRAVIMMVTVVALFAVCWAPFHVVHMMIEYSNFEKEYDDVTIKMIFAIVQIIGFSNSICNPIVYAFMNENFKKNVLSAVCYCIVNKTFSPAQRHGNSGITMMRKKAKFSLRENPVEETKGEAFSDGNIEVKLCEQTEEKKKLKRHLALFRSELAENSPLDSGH

[2] = test system: Mus musculus; test: Orexigenic effect in icv dosed Swiss albino CD1 mouse assessed as cumulative food intake measured after 2 hrs; format: functional
[3] = test system: Mus musculus; test: Orexigenic effect in Swiss albino CD1 mouse at 0.012 to 1.2 nmol, icv measured for 30 mins; format: functional, organism-based
[4] = test system: Mus musculus; test: Orexigenic effect in Swiss albino CD1 mouse at 0.012 to 1.2 nmol, icv after 30 mins; format: functional, organism-based
[5] = Half life in human serum by RP-HPLC; format: ADME, cell-free
[6] = test system: Mus musculus; test: Orexigenic effect in Swiss albino CD1 mouse at 1.2 nmol, icv measured after every 30 mins for 60 to 90 mins; format: functional, organism-based
[7] = biological target: T1, Pyroglutamylated RF-amide peptide receptor; test: Displacement of [125I]26RFa from human GPR103 expressed in HEK293 cells incubated for 1 h by gamma counter based method; format: cell-based
[8] = biological target: T1, Pyroglutamylated RF-amide peptide receptor; test: Antagonist activity at human GPR103 expressed in CHO cells co-expressing Galpha16 assessed as inhibition of human 26RFa-induced increase in intracellular calcium level by fluorimetry; format: functional, cell-based
[9] = test system: Mus musculus; test: Orexigenic effect in Swiss albino CD1 mouse at 1.2 nmol, icv measured after every 30 mins for 90 to 120 mins; format: functional, organism-based
[10] = test system: Serum; test: Ratio of t1/2 of compound to t1/2 of 26RFa in human serum by RP-HPLC; format: ADME, cell-free
[11] = test system: Mus musculus; test: Orexigenic effect in icv dosed Swiss albino CD1 mouse measured after every 30 mins; format: functional, organism-based
[12] = test system: Serum; test: Compound degradation in human serum assessed as breakdown of N-terminal region incubated for 2 mins by RP-HPLC; format: ADME, cell-free
[13] = test system: Serum; test: Compound degradation in human serum assessed as breakdown of N-terminal region incubated for 15 mins by RP-HPLC; format: ADME, cell-free; conditions: 0.25 h

Structure (SMILES): N=C(N)NCCC[C@H](NC(=O)[C@H](Cc1ccccc1)NC(=O)[C@H](CO)NC(=O)[C@H](Cc1ccccc1)NC(=O)CNC(=O)CN)C(=O)N[C@@H](Cc1ccccc1)C(N)=O (H-GGFSFRF-NH2)
- Activity [2]: 1833 mg
- Activity [3]: Active
- Activity [4]: inactive
- half-life [5]: 11.2 min
- Activity [6]: Active
- IC50 [7]: 8.73 µM

Structure (SMILES): CCCN(CC(=O)N[C@@H](Cc1ccccc1)C(=O)N[C@@H](CCCN=C(N)N)C(=O)N[C@@H](Cc1ccccc1)C(N)=O)NC(=O)[C@H](Cc1ccccc1)NC(=O)CNC(=O)CN (H-GGF[X4]FRF-NH2)
- IC50 [8]: > 10 µM
- EC50 [1]: > 10 µM

Structure (SMILES): NCC(=O)NCC(=O)N[C@@H](Cc1ccccc1)C(=O)N[C@@H](CO)C(=O)N[C@@H](Cc1ccccc1)C(=O)N[C@@H](CCCN=C(N)N)C(=O)NN(CC(N)=O)Cc1ccccc1 (H-GGFSFR-X2)
- IC50 [8]: > 10 µM
- EC50 [1]: > 10 µM

Structure (SMILES): CC(C)C[C@H](NC(=O)[C@H](CC(N)=O)NC(=O)CNC(=O)[C@H](CC(C)C)NC(=O)[C@@H]1CCCN1C(=O)CNC(=O)[C@H](CO)NC(=O)[C@@H](N)[C@@H](C)O)C(=O)N[C@@H](C)C(=O)N[C@@H](CCC(=O)O)C(=O)N[C@@H](CCC(=O)O)C(=O)N[C@@H](CC(C)C)C(=O)N[C@@H](CC(N)=O)C(=O)NCC(=O)N[C@@H](Cc1ccc(O)cc1)C(=O)N[C@@H](CO)C(=O)N[C@@H](CCCNC(=N)N)C(=O)N[C@@H](CCCCN)C(=O)N[C@@H](CCCCN)C(=O)NCC(=O)NCC(=O)N[C@@H](Cc1ccccc1)C(=O)N[C@@H](CO)C(=O)N[C@@H](Cc1ccccc1)C(=O)N[C@@H](CCCNC(=N)N)C(=O)N[C@@H](Cc1ccccc1)C(N)=O (H-TSGPLGNLAEELNGYSRKKGGFSFRF-NH2)
- half-life [5]: 6.9 min
- IC50 [7]: 0.00126 µM

Structure (SMILES): NCC(=O)NCC(=O)NN(CC(=O)N[C@@H](CO)C(=O)N[C@@H](Cc1ccccc1)C(=O)N[C@@H](CCCN=C(N)N)C(=O)N[C@@H](Cc1ccccc1)C(N)=O)Cc1ccccc1 (H-GG[X5]SFRF-NH2)
- EC50 [1]: 2.34 µM

Structure (SMILES): NCC(=O)NCC(=O)N[C@@H](Cc1ccccc1)C(=O)N[C@@H](CO)C(=O)N[C@@H](Cc1ccccc1)C(=O)NN(CCCN=C(N)N)CC(=O)N[C@@H](Cc1ccccc1)C(N)=O (H-GGFSF[azaβ3hArg]F-NH2)
- IC50 [8]: > 10 µM
- EC50 [1]: > 10 µM

Structure (SMILES): CN(CC(=O)N[C@@H](Cc1ccccc1)C(=O)N[C@@H](CCCN=C(N)N)C(=O)N[C@@H](Cc1ccccc1)C(N)=O)NC(=O)[C@H](Cc1ccccc1)NC(=O)CNC(=O)CN (H-GGF[X8]FRF-NH2)
- EC50 [1]: 1.1 µM

Structure (SMILES): NCC(=O)NCC(=O)N[C@@H](Cc1ccccc1)C(=O)NN(CC(=O)N[C@@H](Cc1ccccc1)C(=O)N[C@@H](CCCN=C(N)N)C(=O)N[C@@H](Cc1ccccc1)C(N)=O)CC1CCCCC1 (H-GGF[X9]FRF-NH2)
- EC50 [1]: 1.37 µM

Structure (SMILES): CCCCN(CC(=O)N[C@@H](Cc1ccccc1)C(=O)N[C@@H](CCCNC(=N)N)C(=O)N[C@@H](Cc1ccccc1)C(N)=O)NC(=O)[C@H](Cc1ccccc1)NC(=O)CNC(=O)CN (H-GGF[X3]FRF-NH2)
- EC50 [1]: 29.8 µM

Structure (SMILES): N=C(N)NCCC[C@H](NC(=O)[C@H](Cc1ccccc1)NC(=O)CN(CCO)NC(=O)[C@H](Cc1ccccc1)NC(=O)CNC(=O)CN)C(=O)N[C@@H](Cc1ccccc1)C(N)=O (H-GGF[X6]FRF-NH2)
- EC50 [1]: 1.09 µM

Structure (SMILES): NCC(=O)NCC(=O)N[C@@H](Cc1ccccc1)C(=O)N[C@@H](CO)C(=O)NN(CC(=O)N[C@@H](CCCN=C(N)N)C(=O)N[C@@H](Cc1ccccc1)C(N)=O)Cc1ccccc1 (H-GGFS[X5]RF-NH2)
- IC50 [8]: > 10 µM
- EC50 [1]: > 10 µM

More lines, main results first:

- EC50 [1]: 0.382 µM
Structure (SMILES): N=C(N)NCCC[C@H](NC(=O)[C@H](Cc1ccccc1)NC(=O)CN(CC(O)CO)NC(=O)[C@H](Cc1ccccc1)NC(=O)CN1CCCN1)C(=O)N[C@@H](Cc1ccccc1)C(N)=O (some centres not stated) (X7-F[X1]FRF-NH2)

- EC50 [1]: 0.429 µM
Structure (SMILES): N=C(N)NCCC[C@H](NC(=O)[C@H](Cc1ccccc1)NC(=O)[C@H](CO)NC(=O)[C@H](Cc1ccccc1)NC(=O)CNC(=O)CNN)C(=O)N[C@@H](Cc1ccccc1)C(N)=O (Hydrazinoacetyl-GFSFRF-NH2)

- EC50 [1]: 0.138 µM
Structure (SMILES): NC(=O)[C@H](Cc1ccccc1)NC(=O)[C@H](CCCN=C(N)N)NC(=O)[C@H](Cc1ccccc1)NC(=O)[C@H](CO)NC(=O)[C@H](Cc1ccccc1)NC(=O)CN1CCNCC1 ({Acetyl(2-(piperazin-1-yl))}-FSFRF-NH2)

- half-life [5]: 35.6 min
- EC50 [1]: 0.0936 µM
- Ratio [10]: 5
- Stability [12]: Stable
- Stability [13]: Stable
- IC50 [7]: 1.99 µM
Structure (SMILES): N=C(N)NCCC[C@H](NC(=O)[C@H](Cc1ccccc1)NC(=O)CN(CC(O)CO)NC(=O)[C@H](Cc1ccccc1)NC(=O)CN1CCNCC1)C(=O)N[C@@H](Cc1ccccc1)C(N)=O (some centres not stated) ({Acetyl(2-(piperazin-1-yl))}-F[X1]FRF-NH2)
- Activity [2]: 1873 mg
- Activity [9]: Active
- Activity [11]: Dose-dependent effect

- EC50 [1]: 0.136 µM
- IC50 [7]: 2.99 µM
Structure (SMILES): N=C(N)NCCC[C@H](NC(=O)[C@H](Cc1ccccc1)NC(=O)[C@H](CO)NC(=O)[C@H](Cc1ccccc1)NC(=O)CNNC(=O)CN)C(=O)N[C@@H](Cc1ccccc1)C(N)=O (H-G[Hydrazinoacetyl]FSFRF-NH2)

- EC50 [1]: 0.164 µM
Structure (SMILES): CCCN(CC(=O)N[C@@H](Cc1ccccc1)C(=O)N[C@@H](CCCNC(=N)N)C(=O)N[C@@H](Cc1ccccc1)C(N)=O)NC(=O)[C@H](Cc1ccccc1)NC(=O)CN1CCNCC1 ({Acetyl(2-(piperazin-1-yl))}-F[X4]FRF-NH2)

- EC50 [1]: 0.341 µM
Structure (SMILES): NCC(=O)NCC(=O)N[C@@H](Cc1ccccc1)C(=O)NN(CC(=O)N[C@@H](Cc1ccccc1)C(=O)N[C@@H](CCCN=C(N)N)C(=O)N[C@@H](Cc1ccccc1)C(N)=O)CC(O)CO (some centres not stated) (H-GGF[X1]FRF-NH2)
